Entries after “also recorded” stand apart in the source; their conditions may differ. Where no end group is shown, it is not given here.
Experiments:
U937 cells [1] = test: BODIPY-NaD1 binding to viable and permeabilised U937 cells (flow cytometry, 7AAD); assay type: cell-based, human; conditions: 10 μM, 37° C., 30 min
Description: The percentage of cells in each population (boxed) is indicated.

U937 and PC3 cells = test: Subcellular localisation of BODIPY-NaD1 by CLSM; assay type: cell-based, human; conditions: PI present, 12 minutes
Protocol: FIG. 2B is a series of micrographs examining the subcellular localisation of BODIPY-NaD1 in U937 and PC3 cells. U937 cells immobilised onto 10% poly-L-lysine coverslips or PC3 cells cultured as adherent monolayers on coverslips, were treated with […] BODIPY-NaD1 in the presence of 1 μg/ml PI for 12 minutes and cells imaged by CLSM. Scale bars represent 10 μm.
Live imaging was performed on a Zeiss LSM-510 confocal microscope using a 40× oil immersion objective in a 37° C./5% CO2 atmosphere. Adherent cells were cultured on coverslips prior to imaging while non-adherent cells were immobilized onto 10% poly-L-lysine-coated coverslips. All cell types were prepared for imaging in RPMI medium containing 0.1% BSA and […] PI. […] In certain experiments, cells were either, stained with PKH67 (Sigma-Aldrich) or transfected with plasmid construct for free GFP or GFP-PH(PLCδ) using Lipofectamine™ 2000 Reagent (Invitrogen) as per manufacturer's instructions prior to imaging. Transmission electron microscopy (TEM) imaging was performed according to a previously described procedure (Adda et al. 2009).

U937 cells [2] = test: PI uptake membrane permeabilisation assay (flow cytometry); assay type: cell-based, human; conditions: 30 minutes at 37° C.
Protocol: FIG. 5B is a graphical representation showing the effect of rNaD1, rNaD1(D2L4A), or rNaD1(D2L5) on the permeabilisation of U937 cells. Cells were incubated with 10 μM of each defensin for 30 minutes at 37° C. upon which 1 μg/ml PI propidium iodide (PI) was added. The number of cells that stained positively for PI was determined by flow cytometry.
Cells were incubated with 10 μM of each defensin for 30 minutes at 37° C. upon which 1 μg/ml PI propidium iodide (PI) was added. The number of cells that stained positively for PI was determined by flow cytometry.
Cells were incubated with 5 μM of each defensin for 30 minutes at 37° C. upon which […] PI propidium iodide (PI) was added. The number of cells that stained positively for PI was determined by flow cytometry.
Unless otherwise stated, cells are re-suspended at a cell concentration of 4×10^5 cells/mL in complete culture RPMI-1640 medium supplemented with 10% FBS, 100 μ/mL penicillin and 100 μg/mL streptomycin, and are added to either a V-bottom 96-well plate or microfuge tubes. Cells are kept at 37° C., unless otherwise stated, during protein addition (5 μL) at various concentrations or the set concentration of 10 μM. Typically, cells are mixed with the heterogeneous defensin of interest and are incubated at 37° C. for 30 min. In certain experiments, cells are also incubated at either 4° C. or 37° C. for 2-60 min prior to flow cytometry analysis. Cells are added to an equal volume of complete culture medium containing 2 μg/mL propidium iodide (PI, Annexin V-FITC Apoptosis Detection Kit, Invitrogen) and are analysed immediately by flow cytometry using a FACSCanto cell sorter (Becton Dickson, Fanklin Lakes, N.J.) and Cell Quest Pro Software (Becton Dickson). Typically, 5000-10000 events per sample are collected and the resultant data is analysed using FlowJo software (Tree Star, Ashland, Oreg.). Cells are gated appropriately based on forward scatter (FSC) and side scatter (SSC), with the viable cells is determined by their ability to exclude PI. […]

[3] = Lipid binding assay on Echelon membrane lipid strips; conditions: anti-NaD1 antibody detection, densitometry
Description: FIG. 5C is an immunoblot depicting the lipid binding profile of rNaD1, rNaD1(D2L4A), or rNaD1(D2L5). Echelon™ membrane lipid strips were probed with the defensins and binding detected with a rabbit anti-NaD1 antibody followed by a horseradish peroxidase (HRP) conjugated donkey anti-rabbit IgG antibody.
Data is the mean of three replicate experiments±SEM.
Echelon™ membrane lipid strips were probed with the defensins and binding was detected with a rabbit anti-NaD1 antibody followed by a horseradish peroxidase (HRP) conjugated donkey anti-rabbit IgG antibody.
Membrane Lipid Strips™, PIP Strips™ and Sphingo Strips™ (Echelon Biosciences, Salt Lake City, Utah) were incubated with PBS/3% BSA for 1-2 h at RT to block non-specific binding. […] Membrane-bound protein was detected by probing the membrane strips with a rabbit anti-NaD1 polyclonal antibody (diluted 1:2000 with PBS/1% BSA) for 1 h at 4° C., followed by a HRP-conjugated donkey anti-rabbit IgG antibody (diluted 1:2000 with PBS/1% BSA) for 1 h at 4° C. After each antibody incubation, the membrane strips were washed extensively for 60 min at RT with PBS/0.1% Tween-20. Chemiluminescence was detected using the enhanced chemiluminescence (ECL) western blotting reagent (GE Healthcare BioSciences, NSW Australia) and exposed to Hyperfilm (GE Healthcare BioSciences, NSW, Australia) and developed using an Xomat (All-Pro-Imaging). […]

[4] = Cross-linking (BS3) study of lipid-mediated oligomerisation with PIP2; conditions: 0.5 mM PIP2, 30 min room temperature, SDS-PAGE, immunoblot
Protocol: (§1) Molecular weight markers are indicated.
(§2) Protein samples at 1 mg ml^−1 (2.5 μl) were incubated with 0.5 mM PIP2 or PA (2.5 μl) at room temperature for 30 min. […] Samples were reduced and denatured, and subjected to SDS-PAGE.

[5] = Cross-linking (BS3) study of lipid-mediated oligomerisation with PA; conditions: 0.5 mM PA, 30 min room temperature, SDS-PAGE, immunoblot
Protocol: as §1, §2

[6] = as described in PCT/AU2011/000760 and U.S. Ser. No. 13/166,960; cited from earlier work
tumour cells = conditions: as disclosed in PCT/AU2011/000760 and U.S. Ser. No. 13/166,960; cited from earlier work
[7] = target: the molecule itself; test: BS3 cross-linking in solution, SDS-PAGE and immunoblot; NaD2 was also efficiently multimerised by PA and not by PIP2
Protocol: FIG. 4B is an immunoblot depicting the lipid-mediated oligomerisation of the class II defensins NaD1 and TPP3, and the class I defensin NaD2. Each of the defensins at 250 ng/ml were incubated with 0.5 mM PIP2 or PA at room temperature for 30 minutes and samples then treated with the cross-linker bis[sulfosuccinimidyl] suberate (BS³) at 12.5 mM for a further 30 minutes, Samples were reduced and denatured, separated by SDS-PAGE, and examined by immunoblotting with an anti-NaD1 (NaD1 and TPP3) or anti-NaD2 (NaD2) antibody. Molecular weight markers are indicated.

BODIPY-NaD1: BODIPY-labelled NaD1 (RECKTESNTFPGICITKPPCRKACISEKFTDGHCSKILRRCLCTKPC; cysteine pairing not given here; also: BODIPY label (position not given here); UniProt Q8GTM0 26-72, looked up)
binding to U937 cells (U937 cells [1]; 7AAD, flow cytometry): bound to both viable (7AAD negative) and permeabilised (7AAD positive) U937 cells
membrane permeabilisation of U937 (7AAD) (U937 cells [1]; compared with unlabelled NaD1): comparable level to unlabelled NaD1
subcellular localisation on permeabilised tumor cells (U937 and PC3 cells): accumulation of BODIPY-NaD1 at the membrane bleb(s), cytoplasm, nucleolus and possibly at certain cytoplasmic organelles

rNaD1: NaD1 purified from P. pastoris (recombinant NaD1) (RECKTESNTFPGICITKPPCRKACISEKFTDGHCSKILRRCLCTKPC; recombinant, Pichia pastoris; UniProt Q8GTM0 26-72, looked up)
permeabilisation of U937 cells (cells stained positively for PI) (U937 cells [2]; 10 μM of each defensin): permeabilised U937 cells
lipid binding profile (lipid bound most strongly / preferred) [3]: bound most strongly to PIP2

RTCESQSHRFKGPCARDSNCATVCLTEGFSGGDCRGFRRRCFCTRPC (listed as Nicotiana alata) [NaD2]
multimerisation (oligomer formation) mediated by PIP2 [4]: not PIP2
multimerisation (oligomer formation) mediated by PA [5]: forms oligomers with PA; also recorded: efficiently multimerised by PA
lipid binding preference / ligand [6]: preferentially binds PA over PIP2; also recorded: does not bind PIP2
tumour cell killing (tumour cells): does not kill tumour cells

R40E: NaD1 mutant, loop 5 residue R40 replaced with glutamic acid (RECKTESNTFPGICITKPPCRKACISEKFTDGHCSKILRECLCTKPC; UniProt Q8GTM0 26-72, looked up, variant R40E)
permeabilisation of U937 cells (cells stained positively for PI) (U937 cells [2]; 5 μM of each defensin): greatly reduced ability to permeabilise U937 cells

K36E: NaD1 mutant, loop 5 residue K36 replaced with glutamic acid (RECKTESNTFPGICITKPPCRKACISEKFTDGHCSEILRRCLCTKPC; UniProt Q8GTM0 26-72, looked up, variant K36E)
permeabilisation of U937 cells (cells stained positively for PI) (U937 cells [2]; 5 μM of each defensin): greatly reduced ability to permeabilise U937 cells

RTCESQSHRFKGPCARDSNCATVCLTEGFSGGDCRGFRRRCFCTRPC (other) [NaD2 (Class I plant defensin)]
binding result [7]: binds

Source: patent US20150004137A1, “NOVEL FORMS OF PLANT DEFENSINS” (Balmoral Australia Pty Ltd, priority 2011, published 2015)
